Assay results: patent publication US10493070B2 (priority 2016, dated 2019)

The compounds below were run on recombinant NL4-3 virus (NLRluc, Renilla luciferase in nef, Gag P373S) (assay: HIV cell culture assay (Renilla luciferase reporter virus in MT-2 cells)). Conditions: Renilla, NL43, read-out: 10% FBS EC50, 10% FBS, class symbols A/B/C.
Format: cell-based
Description: MT-2 cells and 293T cells were obtained from the NIH AIDS Research and Reference Reagent Program. MT-2 cells were propagated in RPMI 1640 media supplemented with 10% heat inactivated fetal bovine serum, […]. The 293T cells were propagated in DMEM media supplemented with 10% heat inactivated fetal bovine serum (FBS), 100 units/ml penicillin G and 100 μg/ml streptomycin. The proviral DNA clone of NL4-3 was obtained from the NIH AIDS Research and Reference Reagent Program. A recombinant NL4-3 virus, in which a section of the nef gene from NL4-3 was replaced with the Renilla luciferase gene, was used as a reference virus. In addition, residue Gag P373 was converted to P373S. Briefly, the recombinant virus was prepared by transfection of the altered proviral clone of NL4-3. Transfections were performed in 293T cells using LipofectAMINE PLUS from Invitrogen (Carlsbad, Calif.), according to manufacturer's instruction. The virus was titered in MT-2 cells using luciferase enzyme activity as a marker. Luciferase was quantitated using the Dual Luciferase kit from Promega (Madison, Wis.), with modifications to the manufacturer's protocol. The diluted Passive Lysis solution was pre-mixed with the re-suspended Luciferase Assay Reagent and the re-suspended Stop & Glo Substrate (2:1:1 ratio). Fifty (50) μL of the mixture was added to each aspirated well on assay plates and luciferase activity was measured immediately on a Wallac TriLux (Perkin-Elmer). Antiviral activities of inhibitors toward the recombinant virus were quantified by measuring luciferase activity in cells infected for 4-5 days with NLRluc recombinants in the presence serial dilutions of the inhibitor. Table 16 is the key for the data in Table 17.

`CC1(C)C(c2ccc(C(=O)O)cc2)=CC[C@]2(C)CN(c3ncccn3)CC=C12` [Example B11] and `CC1(C)C(c2ccc(C(=O)O)cc2)=CC[C@]2(C)CN(c3ncc(Br)s3)CC=C12` [Example 77] cannot be ordered by EC50: > 3 µM for the first, > 3 µM for the second.

First: CC1(C)C(c2ccc(C(=O)O)cc2)=CC[C@]2(C)CN(c3cc(F)cc(-c4nn[nH]n4)c3)CC=C12 [Example B7]
Second: CC1(C)C(c2ccc(C(=O)O)cc2)=CC[C@]2(C)CN(c3cc(F)cc(-c4nnn(CCN5CCS(=O)(=O)CC5)n4)c3)CC=C12 [Example B8]
The EC50 of the first is higher: > 3 µM for the first, < 0.5 µM for the second. The second is the more potent here.

`CC1(C)C(c2ccc(C(=O)O)cc2)=CC[C@]2(C)CN(C(=O)c3ccccc3-c3nc4cc(C(=O)O)ccc4n3Cc3ccccc3)CC=C12` [Example A290] and `CC1(C)C(c2ccc(C(=O)O)cc2)=CC[C@]2(C)CN(C(=O)c3ccc(C(=O)O)cc3)CC=C12` [Example 13] cannot be ordered by EC50: > 3 µM for the first, > 3 µM for the second.

`CC1(C)C(c2ccc(C(=O)O)cc2)=CC[C@]2(C)CN(C(=O)c3cccc(C(=O)N4CCS(=O)(=O)CC4)c3)CC=C12` [Example 68] and `CC1(C)C(c2ccc(C(=O)O)cc2)=CC[C@]2(C)CN(C(=O)c3ccccc3C(=O)N3CCS(=O)(=O)CC3)CC=C12` [Example 67] cannot be ordered by EC50: > 3 µM for the first, > 3 µM for the second.

`CC1(C)C(c2ccc(C(=O)O)cc2)=CC[C@]2(C)CN(C(=O)c3cccc(C(=O)NCCCN4CCS(=O)(=O)CC4)n3)CC=C12` [Example 70] and `CC1(C)C(c2ccc(C(=O)O)cc2)=CC[C@]2(C)CN(C(=O)c3cccc(C(=O)NCCCN4CCS(=O)(=O)CC4)c3)CC=C12` [Example 66] cannot be ordered by EC50: > 3 µM for the first, > 3 µM for the second.

First: CC1(C)C(c2ccc(C(=O)O)cc2)=CC[C@]2(C)CN(C(=O)c3ccccc3C(=O)N3CC=C4C(C)(C)C(c5ccc(C(=O)O)cc5)=CC[C@]4(C)C3)CC=C12 [Example 60]
Second: CC1(C)C(c2ccc(C(=O)O)cc2)=CC[C@]2(C)CN(C(=O)c3ccc(C(=O)N4CC=C5C(C)(C)C(c6ccc(C(=O)O)cc6)=CC[C@]5(C)C4)s3)CC=C12 [Example 62]
The EC50 of the first is lower: 0.5 to 3 µM for the first, > 3 µM for the second. The first is the more potent here.

Compared with `CC1(C)C(c2ccc(C(=O)O)cc2)=CC[C@]2(C)CN(c3ncc(C(=O)O)s3)CC=C12` [Example B12], `CCOC(=O)c1cnc(N2CC=C3C(C)(C)C(c4ccc(C(=O)O)cc4)=CC[C@]3(C)C2)s1` [Example B14] is lower in EC50: > 3 µM for the first, 0.5 to 3 µM for the second.

`CC1(C)C(c2ccc(C(=O)O)cc2)=CC[C@]2(C)CN(C(=O)c3ccc(F)c(F)c3)CC=C12` [Example 7] and `CC1(C)C(c2ccc(C(=O)O)cc2)=CC[C@]2(C)CN(C(=O)c3ccc(C(N)=O)cc3)CC=C12` [Example 22] cannot be ordered by EC50: > 3 µM for the first, > 3 µM for the second.

First: COc1ccc(OC)c2[nH]c(-c3ccccc3C(=O)N3CC=C4C(C)(C)C(c5ccc(C(=O)O)cc5)=CC[C@]4(C)C3)nc12 [Example A299]
Second: CC1(C)C(c2ccc(C(=O)O)cc2)=CC[C@]2(C)CN(c3ccc(C(=O)O)cc3)CC=C12 [Example B10, (S)-4,4′-(5,5,8a-trimethyl-3,5,8,8a-tetrahydroisoquinoline-2,6(1H)-diyl)dibenzoic acid]
The EC50 of the first is lower: < 0.5 µM for the first, > 3 µM for the second.

First: CC(C)(C)OC(=O)N1CCN(c2ccccc2C(=O)N2CCC3C(C)(C)C(c4ccc(C(=O)O)cc4)CC[C@]3(C)C2)CC1 (stereo partly drawn) [Example 83, 4-((8aS)-2-(2-(4-(tert-butoxycarbonyl)piperazin-1-yl)benzoyl)-5,5,8a-trimethyldecahydroisoquinolin-6-yl)benzoic acid]
Second: CC1(C)C(c2ccc(C(=O)O)cc2)=CC[C@]2(C)CN(C(=O)c3cccc(N4CCOCC4)c3)CC=C12 [Example 27]
The EC50 of the first is lower: < 0.5 µM for the first, > 3 µM for the second.

In the case of `CC1(C)C(c2ccc(C(=O)O)cc2)=CC[C@]2(C)CN(C(=O)CN3CCS(=O)(=O)CC3)CC=C12` [Example 37], the EC50 is reported as > 3 µM.

Same assay, conditions: Renilla, NL43, read-out: 10% FBS EC50, 10% FBS, numeric values

In order of rising EC50:
1. Cc1cc2nc(-c3ccccc3C(=O)N3CC=C4C(C)(C)C(c5ccc(C(=O)O)cc5)=CC[C@]4(C)C3)[nH]c2cc1C [Example 97, (S)-4-(2-(2-(5,6-dimethyl-1H-benzo[d]imidazol-2-yl)benzoyl)-5,5,8a-trimethyl-1,2,3,5,8,8a-hexahydroisoquinolin-6-yl)benzoic acid]  0.051 µM
2. CC1(C)C(c2ccc(C(=O)O)cc2)=CC[C@]2(C)CN(c3nc4ccccc4s3)CC=C12 [Example 80]  0.179 µM
3. CC1(C)C(c2ccc(C(=O)O)cc2)=CC[C@]2(C)CN(c3ncnc(N4CC=C5C(C)(C)C(c6ccc(C(=O)O)cc6)=CC[C@]5(C)C4)n3)CC=C12 [Example 75]  0.19 µM
4. COc1cccc2oc(-c3ccccc3C(=O)N3CC=C4C(C)(C)C(c5ccc(C(=O)O)cc5)=CC[C@]4(C)C3)nc12 [Example A311]  0.218 µM
5. Cc1ccc2nc(-c3ccccc3C(=O)N3CC=C4C(C)(C)C(c5ccc(C(=O)O)cc5)=CC[C@]4(C)C3)oc2c1 [Example A326]  0.257 µM
6. CC(C)(C)OC(=O)N1CCC(C)(C(=O)N2CC=C3C(C)(C)C(c4ccc(C(=O)O)cc4)=CC[C@]3(C)C2)CC1 [Example 48]  0.27 µM
7. CC(C)(C)OC(=O)N1CCC(C(=O)N2CC=C3C(C)(C)C(c4ccc(C(=O)O)cc4)=CC[C@]3(C)C2)(C2CCCCC2)CC1 [Example 50]  0.29 µM
8. CC1(C)C(c2ccc(C(=O)O)cc2)=CC[C@]2(C)CN(c3ncnc(NCCCN4CCS(=O)(=O)CC4)n3)CC=C12 [Example 74, (S)-4-(2-(4-((3-(1,1-dioxidothiomorpholino)propyl)amino)-1,3,5-triazin-2-yl)-5,5,8a-trimethyl-1,2,3,5,8,8a-hexahydroisoquinolin-6-yl)benzoic acid]  0.34 µM
9. CC1(C)C(c2ccc(C(=O)O)cc2)=CC[C@]2(C)CN(C(=O)c3ccccc3-c3nc4ccccc4n3-c3ccccc3)CC=C12 [Example A279]  0.39 µM
10. CC(C)(C)OC(=O)N1CCN(c2ccccc2C(=O)N2CC=C3C(C)(C)C(c4ccc(C(=O)O)cc4)=CC[C@]3(C)C2)CC1 [Example 11, (S)-4-(2-(2-(4-(tert-butoxycarbonyl)piperazin-1-yl)benzoyl)-5,5,8a-trimethyl-1,2,3,5,8,8a-hexahydroisoquinolin-6-yl)benzoic acid]  0.46 µM
11. CC1(C)C(c2ccc(C(=O)O)cc2)=CC[C@]2(C)CN(C(=O)c3ccccc3N3CCN(CCN4CCS(=O)(=O)CC4)CC3)CC=C12 [Example 44]  0.52 µM
12. CC1(C)C(c2ccc(C(=O)O)cc2)=CC[C@]2(C)CN(C(=O)c3ccccc3-c3nc4ccccc4n3C3CCN(Cc4ccccc4)CC3)CC=C12 [Example A280]  0.55 µM
13. CC1(C)C(c2ccc(C(=O)O)cc2)=CC[C@]2(C)CN(C(=O)c3ccccc3N3CCOCC3)CC=C12 [Example 26]  0.63 µM
14. CC1(C)C(c2ccc(C(=O)O)cc2)=CC[C@]2(C)CN(c3cc(-c4nnnn4CCN4CCS(=O)(=O)CC4)cc([N+](=O)[O-])c3)CC=C12 [Example B2, (S)-4-(2-(3-(1-(2-(1,1-dioxidothiomorpholino)ethyl)-1H-tetrazol-5-yl)-5-nitrophenyl)-5,5,8a-trimethyl-1,2,3,5,8,8a-hexahydroisoquinolin-6-yl)benzoic acid]  0.76 µM
15. CC1(C)C(c2ccc(C(=O)O)cc2)=CC[C@]2(C)CN(C(=O)c3ccccc3N3CCNCC3)CC=C12 [Example 51, (S)-4-(5,5,8a-trimethyl-2-(2-(piperazin-1-yl)benzoyl)-1,2,3,5,8,8a-hexahydroisoquinolin-6-yl)benzoic acid]  0.87 µM
16. CC1(C)C(c2ccc(C(=O)O)cc2)=CC[C@]2(C)CN(C(=O)c3ccc(C(=O)N4CC=C5C(C)(C)C(c6ccc(C(=O)O)cc6)=CC[C@]5(C)C4)cc3)CC=C12 [Example 59]  1.05 µM
17. CC1(C)C(c2ccc(C(=O)O)cc2)=CC[C@@]2(C)CN(C(=O)c3cccc4c3C(=O)c3ccccc3-4)CC=C12 [Example A30]  1.08 µM
18. CC1(C)C(c2ccc(C(=O)O)cc2)=CC[C@]2(C)CN(c3cc(O)cc(-c4nnn(CCN5CCS(=O)(=O)CC5)n4)c3)CC=C12 [Example B9]  1.17 µM
19. CC1(C)C(c2ccc(C(=O)O)cc2)=CC[C@]2(C)CN(C(=O)c3ccccc3-c3ccc(C#N)cc3)CC=C12 [Example A71]  1.3 µM
20. CC1(C)C(c2ccc(C(=O)O)cc2)=CC[C@]2(C)CN(C(=O)C3(c4ccccc4)CCN(CCN4CCS(=O)(=O)CC4)CC3)CC=C12 [Example 96, (S)-4-(2-(1-(2-(1,1-dioxidothiomorpholino)ethyl)-4-phenylpiperidine-4-carbonyl)-5,5,8a-trimethyl-1,2,3,5,8,8a-hexahydroisoquinolin-6-yl)benzoic acid]  1.35 µM
21. CC(C)(C)OC(=O)NCCn1c(-c2ccccc2C(=O)N2CC=C3C(C)(C)C(c4ccc(C(=O)O)cc4)=CC[C@]3(C)C2)nc2cc(C(F)(F)F)ccc21 [Example A283]  1.37 µM
22. CC1(C)C(c2ccc(C(=O)O)cc2)=CC[C@]2(C)CN(C(=O)C3C4CCC(C4)C3C(=O)N3CC=C4C(C)(C)C(c5ccc(C(=O)O)cc5)=CC[C@]4(C)C3)CC=C12 (stereo partly drawn) [Example 65]  2.81 µM
23. CN1Cc2c(ccc3nc(-c4ccccc4C(=O)N4CC=C5C(C)(C)C(c6ccc(C(=O)O)cc6)=CC[C@]5(C)C4)[nH]c23)C(c2ccccc2)C1 (stereo partly drawn) [Example 100]  2.81 µM
24. CC1(C)C(c2ccc(C(=O)O)cc2)=CC[C@]2(C)CN(C(=O)[C@H]3CC[C@H](N)CC3)CC=C12 [Example 52]  3.62 µM
